Results from paper PMC6324813, “Biological evaluation of isoflavonoids from Genista halacsyi using estrogen-target cells: Activities of glucosides compared to aglycones” (PLoS ONE, 2019).

Columns and labels:
[1] = system: Ishikawa cells; assay: Induction of AlkP expression in Ishikawa cells; assay type: cell-based, human; settings: for EC (25% of 0.1 nM E2 effect) / activation at 1 µM: 72 h; for EC (25% of 0.1 nM E2 effect): concentration required to achieve 25% of the effect of 0.1 nM E2, read-out: Induction of Alkaline Phosphatase Expression (Ishikawa cells) EC25E2; for activation at 1 µM: read-out: Induction of AlkP expression (Ishikawa cells) Agonism at 1μΜ (% of 0.1nM E2)
Experimental: Induction of AlkP expression of Ishikawa cells is considered as a reliable in vitro measure of estrogenic activity. Assessment of AlkP expression in Ishikawa cells was carried as already described. Briefly, the cells were plated in 96-well plates at a density of 12,000 cells per well in phenol-red-free MEM supplemented with 1 μg/mL insulin and 5% DCC-FBS. […] Data on the dependence of AlkP activity on isoflavonoid concentration were curve fitted using SigmaPlot10 (SPSS Inc) and the numerical data of curve fitting were used to determine AUC as described above, using for the calculation of AUC of a particular AlkP response the very same concentration used for the respective luciferase response. The AUC of AlkP responses of the isoflavonoids of a group were expressed as % of the AUC of the luciferase response of the respective archetypal isoflavone.

[2] = system: MCF-7 cells; assay: MCF-7 cell proliferation (MTT); assay type: cell-based, human; settings: for activation at 1 µM: Homo sapiens, MCF7, 72 h, read-out: Induction of cell proliferation (MCF-7 cells) Agonism at 1μΜ (% of 0.1nM E2)
Experimental: Test compound effects on the proliferation of MCF-7 and MDA-MB-231 cells were assessed as previously described.

[3] = system: RAW 264.7 cells; assay: Differentiation of RAW 264.7 cells to osteoclasts, TRAP activity; assay type: cell-based, mouse; settings: RANKL 50 ng/ml + E2 1 nM or compound 1 μM; 3 days; DF plus vehicle = 100
Experimental: Clones of RAW 264.7 cells competent to differentiate to multinuclear osteoclasts upon activation with RANKL provide valuable information on the regulation of osteoclast differentiation. Differentiation-competent RAW cells (ATCC TIB-71) were seeded in 96-well plates at a density of 9,600 cells per well. The cells were plated in the presence of test compounds or compound diluent (0.1% DMSO) and, 4 h after plating, were exposed for 3 days to 50 ng/ml RANKL or to plain medium. Osteoclastic differentiation was assessed via induction of Tartrate-Resistant Acid Phosphatase (TRAP) activity. The cells were washed with PBS and incubated with 25μl lysis buffer (0.4 M NaCl, 25 mM Hepes pH 7.7, 1.5 mM MgCl2, 0.2 mM EDTA, 1% NP40) for 5 min on ice.

[4] = system: HT22 cells; assay: Glutamate toxicity (oxytosis) of HT22 neuronal cells (MTT); settings: for viability of HT22 cells under normal growth conditions compared to vehicle-treated cells: no glutamate
Experimental: Glutamate-challenged HT22 cells suffer oxidative stress-induced cell death (oxytosis) within 24 h due to glutathione depletion and consequent massive accumulation of ROS [42]. The efficacy of test compounds to prevent oxytosis of HT22 cells was assessed as already described. Briefly, HT22 cells were plated in 96-well flat bottom plates at a density of 4,000 cells per well in 100 μl of DMEM (low glucose) containing 2% FBS. 24 h after plating, the cells were treated with test compounds or compound diluent (0.1% DMSO) and then challenged with 5 mM glutamate for 24 h. […] Non-challenged cells served to assess test compound effects on cell viability, whereas challenged cells served to assess the neuroprotective activity of test compounds.

[5] = system: TNFα mRNA; assay: LPS-induced TNFα mRNA expression in RAW 264.7 cells (RT-qPCR); assay type: cell-based, mouse
Experimental: To assess TNFα mRNA expression, RAW 264.7 cells were plated in 6-well plates in alpha-MEM medium supplemented with 10% DCC-FBS, at a density of 300,000 cells per well, maintained in culture for 72 h and then exposed to vehicle (0.3% DMSO) or 3 μΜ test compound for 20 min or 24 h prior to stimulation with 100 ng/ml lipopolysaccharide (Sigma L4391) for 1 h. Extraction of total RNA, reverse transcription (RT) and quantitative PCR (qPCR) analysis of mRNA expression levels were performed as previously described. Relative gene expression levels were calculated by the comparative Ct method using the formula 2^(-ΔCt). Tumor necrosis factor alpha (TNFα) mRNA levels were normalized to the respective levels of […] (GAPDH). Test compound effects on the relative number of viable cells were assessed using crystal violet and a Safire II microplate reader (Tecan) as previously described. […] The following primers were used: […]

[6] = system: RAW 264.7 cells; settings: cited from earlier work
[7] = system: HT22 cells; settings: cited from earlier work; for prevention of oxytosis of glutamate-challenged HT22 cells: 1 μM estradiol or 2.5 μM genistein
[8] = system: TNFα mRNA; settings: cited from earlier work
[9] = system: MDA-MB-231 cells; assay: MDA-MB-231 cell proliferation (MTT); assay type: cell-based; settings: 0.1 nM estradiol, 1 μM ICI182,780, isoflavonoids 1 μM
Experimental: Test compound effects on the proliferation of MCF-7 and MDA-MB-231 cells were assessed as previously described. […] Relative numbers of cells exposed to estradiol or to ICI182,780 acted as positive and negative control, respectively.

[10] = system: MC3T3-E1 cells; assay: Differentiation of MC3T3-E1 cells to osteoblasts, AlkP activity; assay type: cell-based, mouse; settings: DF + E2 1 nM or compound 1 μM; 6 days; DF plus vehicle = 100
Experimental: (§1) Differentiation of MC3T3-E1 cells was carried out in 96-well plates using 3,300 cells per well and was assessed via induction of, i) Alkaline Phosphatase (AlkP) activity after 6 days of treatment and, ii) mineralization of extracellular matrix after 21 days of treatment. Briefly, 24 h after plating, the cells were incubated with test compounds or vehicle i.e. the compound diluent (0.1% DMSO) and then exposed for 6 days to differentiation medium in presence or absence of differentiation factors (cf. Cell culture) with a change to fresh compounds and medium in 3 days. AlkP activity was assessed at 405 nm in a Safire II microplate reader using as substrate p-nitrophenyl-phosphate (pNPP, Sigma-Aldrich) as already described. Mineralization of MC3T3 cells was assessed by staining with Alizarin red (Fluka). Cells were cultured and treated as described above for 21 days, with media and test compounds changed every 3 days, and calcium phosphate deposition was assayed as described by Gregory et al.. Briefly, the cells were washed twice with PBS and fixed with 70% ethanol for 15 min on ice. The cells were stained with Alizarin red solution (40 mM, pH 4.2) for 30 min at room temperature, washed twice with distilled water and once with PBS. The dye from the stained mineral deposits was extracted with 33% acetic acid and the absorbance was measured at 405 nm using a Safire II microplate reader (Tecan).

[11] = system: MC3T3-E1 cells; assay: Mineralization of MC3T3-E1 cells, Alizarin red staining; assay type: cell-based, mouse; settings: DF + E2 1 nM or compound 1 μM; 21 days; DF plus vehicle = 100
Experimental: as §1, with “Differentiation of MC3T3-E1 cells to osteoblasts has been extensively used to screen for compounds that may promote bone formation. Differentiation” for “Differentiation”

[12] = target: ERβ (Homo sapiens, UniProt Q92731); assay: ERE-dependent luciferase gene transcription in HEK:ERβ cells; assay type: cell-based; set-up: expressed in transfected cells; host or cells: HEK-293 (HEK:ERβ clone, with pERE-tk-Luciferase); settings: compounds 1 μM, estradiol 0.1 nM; 18 h
Experimental: Assessment of ER/ERE-dependent luciferase gene transcription in MCF-7:D5L (express ERα) and HEK:ERβ cells (express ERβ) and determination of ER transcriptional agonism was carried as already described. Briefly, the cells were plated in 96-well plates at a density of 12,000 cells per well in phenol-red-free MEM (MCF-7:D5L cells) or phenol-red-free DMEM (HEK:ERβ cells) supplemented with 1 μg/mL insulin and 5% DCC-FBS. […] The AUC of the isoflavonoids of each group were then expressed as % of the AUC of the respective archetypal isoflavone. Since AUC data combine the efficacy as well as the potency of cell response into a single parameter, the %AUC data were considered here as a more reliable measure of relative ER/ERE-dependent luciferase expression of the test compounds.

[13] = 1 nM estradiol or 1 μM compound

ERβ, sequence (Q92731 whole entry): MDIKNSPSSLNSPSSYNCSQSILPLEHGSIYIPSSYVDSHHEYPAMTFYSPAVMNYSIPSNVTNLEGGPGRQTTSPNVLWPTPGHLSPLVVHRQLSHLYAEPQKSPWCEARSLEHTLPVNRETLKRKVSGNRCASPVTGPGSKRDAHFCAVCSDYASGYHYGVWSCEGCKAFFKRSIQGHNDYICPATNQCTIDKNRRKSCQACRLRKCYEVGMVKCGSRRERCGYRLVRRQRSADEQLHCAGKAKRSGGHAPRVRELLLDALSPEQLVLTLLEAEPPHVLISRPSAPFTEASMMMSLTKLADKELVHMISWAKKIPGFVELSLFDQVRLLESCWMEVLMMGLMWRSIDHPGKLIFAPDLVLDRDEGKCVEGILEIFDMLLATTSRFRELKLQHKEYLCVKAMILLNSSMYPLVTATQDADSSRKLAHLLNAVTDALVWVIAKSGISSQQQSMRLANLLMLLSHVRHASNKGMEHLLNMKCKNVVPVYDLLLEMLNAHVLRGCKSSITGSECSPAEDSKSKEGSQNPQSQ

Compound	EC (25% of 0.1 nM E2 effect) ([1]; Homo sapiens, Ishikawa) [µM]	activation at 1 µM ([1]; Homo sapiens, Ishikawa) [%]	activation at 1 µM [2] [%]	Differentiation of RAW 267.4 cells, TRAP expression (%) [3] [%]	viability of HT22 cells under normal growth conditions compared to vehicle-treated cells [4, 13]	concentrations that inhibit osteoclastic differentiation of RAW 264.7 cells [6] [µM]	prevention of oxytosis of glutamate-challenged HT22 cells [7]	further results
O=c1c(-c2ccc(O)cc2)coc2cc(O)cc(O)c12 [Compound 3, genistein]	0.03 ± 0.01	110 ± 11	79 ± 6	106±11	not different	≥ 10	unable to prevent oxytosis	EC50 ([1]; Homo sapiens, Ishikawa, read-out: Induction of Alkaline Phosphatase Expression (Ishikawa cells) EC50E2): 0.05 ± 0.02 µM; viability of glutamate-treated HT22 cells (% of glutamate-free cells) ([4]; 5 mM glutamate 24 h, 1 nM estradiol or 1 μM compound): ≤ 40%; reduction of LPS induction of TNFα mRNA expression ([5]; 3 μM, pre-treatment 24 h, LPS 100 ng/ml 1 h): 15%; suppression of LPS-stimulated TNFα mRNA expression ([5]; pre-incubated with 3 μM isoflavonoid prior to the stimulation): ineffective; inhibition of TNFα gene transcription in RAW 264.7 cells ([8]; pre-incubation with low micromolar concentrations): 30–40%
C[C@]12CC[C@@H]3c4ccc(O)cc4CC[C@H]3[C@@H]1CC[C@@H]2O [Estradiol, 17β-estradiol, reference compound]	9.83 ± 0.44	100 ± 9	100 ± 19	105±3	not different	≥ 10	unable to prevent oxytosis	induction of AlkP expression ([1]; 0.1 nM estradiol, vs vehicle): 3.68 fold; induction of proliferation of MCF-7 cells ([2]; 0.1 nM estradiol, vs vehicle): 1.80 fold; proliferation of MDA-MB-231 cells [9]: not affected; Differentiation of MC3T3-E1 cells, AlkP expression (%) [10]: 118±2 %; Differentiation of MC3T3-E1 cells, Alizarin red staining (%) [11]: 134±7 %; viability at 0.001 µM ([4]; Mus musculus, HT-22, 24 h, read-out: viability of glutamate-treated HT22 cells (% of glutamate-free cells)): ≤ 40%; IC50 ([7]; read-out: IC50, ER-dependent protection of glutamate-challenged HT22 cells from oxytosis): > 0.8 µM; suppression of TNFα mRNA expression and cytokine release after LPS ([8]; estrogen-free RAW 264.7 cells): unable to suppress; Induction of luciferase gene transcription through ERβ, HEK:ERβ cells, Agonism at 1μΜ (% of 0.1nM E2) [12]: 100 ± 12 % of 0.1nM E2
